Assay: Antioxidant activity against copper-induced lipid peroxidation in human LDL after 1 hr relative to probucol
Assay type: functional

Compound	Activity
COC1=Cc2ccc3cc(O)ccc3c2C(=O)C1(O)CC(C)=O (configuration not stated)	5.3%
COc1cc(CCc2cc(OC)c(O)c(OC)c2)ccc1O	7.8%
Oc1ccc(/C=C/c2cc(O)cc(O)c2)cc1	0.7%
COc1cc(CCc2ccc(O)c(OC)c2)cc(OC)c1	0.9%
CC(C)(Sc1cc(C(C)(C)C)c(O)c(C(C)(C)C)c1)Sc1cc(C(C)(C)C)c(O)c(C(C)(C)C)c1	1%
CCOC1=CC(=O)c2ccc3cc(OC)cc(O)c3c2C1=O	0.2%
COC1=CC(=O)c2ccc3cc(OC)cc(O)c3c2C1=O	0.4%
